Laboratory results taken from patent US8809331B2 (Genentech, Inc., priority 2011, dated 2014).
pKi: −log10 of the molar value.

Biological target: T1, LRRK2 (Homo sapiens, UniProt Q5S007, G2019S)
T1 construct: purchased Invitrogen PV4882
Assay: In Vitro LRRK2 LabChip Assay (LRRK2 Ki)
Type: biochemical
Details: Table 5 compounds (formula I)
Method: In Vitro LRRK2 LabChip Assay
This assay was used to determine a compound's potency in inhibiting activity of LRRK2 by determining, Kiapp, IC50, or percent inhibition values. In a polypropylene plate, LRRK2, fluorescently-labeled peptide substrate, ATP and test compound were incubated together. Using a LabChip 3000 (Caliper Life Sciences), after the reaction the substrate was separated by capillary electrophoresis into two populations: phosphorylated and unphosphorylated. The relative amounts of each were quantitated by fluorescence intensity. LRRK2 Ki was determined according to the equation: Y=V0*(1−((x+Ki*(1+S/Km)+Et)/(2*Et)−(((x+Ki*(1+S/Km)+Et)^2−(4*Et*x))^0.5)/(2*Et))). Ki values in Table 4 and elsewhere herein are shown in μM.
Assay conditions and materials used were as follows:
LRRK2 Wild type in 5 mM MgCl2: 15 nM (Invitrogen lot #500607F)
Kinase reaction time: 2 hours
Wild type in 5 mM MgCl2: 80 μM
Solid Support: Black 50 μL volume polypropylene 384 well plate (MatriCal cat # MP101-1-PP)
Kinase: LRRK2 G2019S (Invitrogen cat #PV4882). • LRRK2 Wild type (Invitrogen cat #PV4874).
Substrate: 5FAM-[…]-CONH2
Non-binding plate: 384 well clear V-bottom polypropylene plates (Greiner cat #781280).
ATP: 10 mM ATP (Cell Signaling cat #9804).
Coating Reagent #3: Coating Reagent #3 (Caliper).
Complete Reaction Buffer: H2O/25 mM Tris, pH 8.0/5 mM MgCl2/2 mM DTT/0.01% Triton X-100.
Stop Solution: H2O/100 mM HEPES, pH 7.2/0.015% Brij-35/0.2% Coating Reagent #3/20 mM EDTA.
Separation Buffer: H2O/100 mM HEPES, pH 7.2/0.015% Brij-35/0.1% Coating Reagent #3/1:200 Coating Reagent #8/10 mM EDTA/5% DMSO.
Compound Plate Preparation:
For serial dilutions, 34.6 μl DMSO was added to columns 3-24. For the assay controls, 37.5 μl DMSO was added to columns 1 and 2 of rows A and P. a, d and 50 μl 25 μM G-028831 (Staurosporine) was added to columns 1 and 2, row B. For the samples: to start at 100 μM, 37.5 μl DMSO was to columns 1 and 2, then 12.5 μl 10 mM compound; to start at 10 μM, 78 μl DMSO was added to columns 1 & 2, then 2 μl 10 mM compound; and to start at 1 μM, 25 μM compound (2 μl 10 mM cmpd+798 μl DMSO) was added to empty columns 1 and 2. A Precision instrument was used to perform 1:3.16 serial dilutions (“PLK_BM_serial_halflog”).
ATP was diluted to 282.1 μM in Complete Kinase Buffer (final concentration was 130 μM).
Total and Blank Preparation:
In Complete Reaction Buffer, substrate was diluted to 4 μM. Equal volumes of Complete Reaction Buffer and 4 μM substrate were combined to obtain the blank. Equal volumes of Complete Reaction Buffer and 4 μM substrate were combined and to the combined solution was added 2× final LRRK2 concentration.
To a 50 μl polypropylene plate, 5 μl/well buffer/substrate was added by hand to Blank wells. A Biomek FX was used to start the kinase reaction (“PLK SAR 23 ATP”). The following were added to the appropriate wells:
5 μl/well compound/ATP in Assay Plate;
5 μl/well kinase/substrate in Assay Plate;
The plate was incubated for 2 hours in the dark. Biomek FX was used to stop the kinase reaction (“PLK Stop”), and 10 μl/well Stop solution was added to the Assay Plate. Results were read on the LabChip 3000.
The LabChip 3000 was run using the job “LRRK2 IC50” with the following job settings:
Downstream voltage: −500 V
Upstream voltage: −2350 V
Post sample buffer sip time: 75 seconds
Post dye buffer sip time: 75 seconds
Final delay time: 200 seconds

T1 sequence (Q5S007 whole entry G2019S): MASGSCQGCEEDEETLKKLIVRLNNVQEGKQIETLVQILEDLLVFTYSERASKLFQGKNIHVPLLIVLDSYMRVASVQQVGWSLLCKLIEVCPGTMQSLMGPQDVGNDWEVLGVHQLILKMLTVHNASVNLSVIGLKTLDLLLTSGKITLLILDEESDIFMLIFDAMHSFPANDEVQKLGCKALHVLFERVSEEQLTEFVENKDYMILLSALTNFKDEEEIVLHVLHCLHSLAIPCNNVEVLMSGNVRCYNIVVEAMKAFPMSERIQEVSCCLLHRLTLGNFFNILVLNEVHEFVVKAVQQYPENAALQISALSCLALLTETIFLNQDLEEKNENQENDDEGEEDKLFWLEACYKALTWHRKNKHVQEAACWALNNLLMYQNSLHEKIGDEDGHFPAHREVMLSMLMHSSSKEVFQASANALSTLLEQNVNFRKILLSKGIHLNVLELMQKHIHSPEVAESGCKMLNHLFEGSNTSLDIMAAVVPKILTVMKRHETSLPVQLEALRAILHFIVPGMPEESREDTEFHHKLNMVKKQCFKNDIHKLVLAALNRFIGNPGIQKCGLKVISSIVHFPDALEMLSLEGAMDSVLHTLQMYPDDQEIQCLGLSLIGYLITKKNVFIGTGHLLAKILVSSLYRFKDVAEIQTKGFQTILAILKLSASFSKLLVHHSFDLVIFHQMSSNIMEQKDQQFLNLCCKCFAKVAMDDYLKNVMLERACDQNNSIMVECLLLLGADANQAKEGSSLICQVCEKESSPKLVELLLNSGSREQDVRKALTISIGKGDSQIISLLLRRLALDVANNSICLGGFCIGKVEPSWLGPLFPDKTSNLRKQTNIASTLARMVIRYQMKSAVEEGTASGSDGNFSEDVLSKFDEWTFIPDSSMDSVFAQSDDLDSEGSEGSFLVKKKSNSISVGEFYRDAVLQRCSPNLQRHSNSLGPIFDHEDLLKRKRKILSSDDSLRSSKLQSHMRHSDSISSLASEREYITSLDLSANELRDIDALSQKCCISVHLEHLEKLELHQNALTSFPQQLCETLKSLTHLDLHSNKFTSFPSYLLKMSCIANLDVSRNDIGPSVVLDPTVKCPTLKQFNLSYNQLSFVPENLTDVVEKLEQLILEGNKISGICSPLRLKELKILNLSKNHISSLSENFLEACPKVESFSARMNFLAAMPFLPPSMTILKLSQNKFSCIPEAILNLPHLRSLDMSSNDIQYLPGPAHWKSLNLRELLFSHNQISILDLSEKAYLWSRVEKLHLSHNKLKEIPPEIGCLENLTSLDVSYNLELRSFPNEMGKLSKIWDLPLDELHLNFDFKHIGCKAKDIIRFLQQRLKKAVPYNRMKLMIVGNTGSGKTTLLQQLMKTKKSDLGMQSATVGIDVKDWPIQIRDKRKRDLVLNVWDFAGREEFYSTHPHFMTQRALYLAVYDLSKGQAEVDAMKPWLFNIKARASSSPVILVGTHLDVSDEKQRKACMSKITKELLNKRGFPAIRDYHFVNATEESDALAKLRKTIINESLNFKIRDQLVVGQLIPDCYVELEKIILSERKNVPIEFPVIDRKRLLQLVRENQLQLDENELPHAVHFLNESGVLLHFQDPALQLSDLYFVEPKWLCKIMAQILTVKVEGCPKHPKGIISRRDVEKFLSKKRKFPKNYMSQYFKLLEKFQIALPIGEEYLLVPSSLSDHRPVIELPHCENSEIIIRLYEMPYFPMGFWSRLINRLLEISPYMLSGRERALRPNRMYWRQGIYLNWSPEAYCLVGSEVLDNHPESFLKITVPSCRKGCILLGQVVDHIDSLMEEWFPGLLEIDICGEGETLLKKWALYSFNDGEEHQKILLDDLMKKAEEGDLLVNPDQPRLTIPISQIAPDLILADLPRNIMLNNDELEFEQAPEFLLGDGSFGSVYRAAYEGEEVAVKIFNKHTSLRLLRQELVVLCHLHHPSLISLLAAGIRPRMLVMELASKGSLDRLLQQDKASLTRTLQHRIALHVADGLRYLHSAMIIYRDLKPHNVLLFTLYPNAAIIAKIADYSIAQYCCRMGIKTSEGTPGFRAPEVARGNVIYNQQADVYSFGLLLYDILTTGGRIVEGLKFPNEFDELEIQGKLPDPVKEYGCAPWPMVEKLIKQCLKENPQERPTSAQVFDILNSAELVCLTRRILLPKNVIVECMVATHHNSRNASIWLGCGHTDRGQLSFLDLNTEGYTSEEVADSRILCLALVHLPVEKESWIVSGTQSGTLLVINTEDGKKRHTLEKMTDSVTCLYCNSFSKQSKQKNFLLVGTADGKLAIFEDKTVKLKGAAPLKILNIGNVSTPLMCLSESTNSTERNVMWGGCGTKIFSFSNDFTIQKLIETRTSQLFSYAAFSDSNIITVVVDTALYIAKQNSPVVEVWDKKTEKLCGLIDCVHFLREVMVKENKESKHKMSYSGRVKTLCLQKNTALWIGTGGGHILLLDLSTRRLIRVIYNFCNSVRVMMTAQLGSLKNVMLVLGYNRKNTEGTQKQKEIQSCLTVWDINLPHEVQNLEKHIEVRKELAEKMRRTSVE

| pKi | Structure (SMILES) |
| --- | --- |
| 9.51 | CCNc1nc(Nc2cc(C)c(C(=O)N3CCOCC3)cc2OC)ncc1C(F)(F)F [Compound 44, [4-(4-Ethylamino-5-trifluoromethyl-pyrimidin-2-ylamino)-5-methoxy-2-methyl-phenyl]-morpholin-4-yl-methanone] |
| 8.15 | CCNc1nc(Nc2cc(OC)c(C(=O)N(C)CC(C)(C)O)cc2F)ncc1C(F)(F)F [Compound 30, 4-(4-Ethylamino-5-trifluoromethyl-pyrimidin-2-ylamino)-5-fluoro-N-(2-hydroxy-2-methyl-propyl)-2-methoxy-N-methyl-benzamide] |
| 7.94 | CNc1nc(Nc2ccc(C(=O)NCC(C)(C)O)c(F)c2OC)ncc1C(F)(F)F [Compound 38, 2-Fluoro-N-(2-hydroxy-2-methyl-propyl)-3-methoxy-4-(4-methylamino-5-trifluoromethyl-pyrimidin-2-ylamino)-benzamide] |
| 8.95 | CCNc1nc(Nc2cc(OC)c(C(=O)N3CCC(F)(F)C3)cc2OC)ncc1C(F)(F)F [Compound 56, (3,3-Difluoro-pyrrolidin-1-yl)-[4-(4-ethylamino-5-trifluoromethyl-pyrimidin-2-ylamino)-2,5-dimethoxy-phenyl]-methanone] |
| 9.29 | COc1cc(C(=O)N2CCOCC2)c(F)cc1Nc1ncc(C(F)(F)F)c(NC2CC2)n1 [Compound 25, [4-(4-Cyclopropylamino-5-trifluoromethyl-pyrimidin-2-ylamino)-2-fluoro-5-methoxy-phenyl]-morpholin-4-yl-methanone] |
| 8.71 | CCNc1nc(Nc2cc(F)c(C(=O)N(C)CC(C)(C)O)cc2OC)ncc1C(F)(F)F [Compound 19, 4-(4-Ethylamino-5-trifluoromethyl-pyrimidin-2-ylamino)-2-fluoro-N-(2-hydroxy-2-methyl-propyl)-5-methoxy-N-methyl-benzamide] |
| 9.08 | CCNc1nc(Nc2cc(OC)c(C(=O)N3CC4(COC4)C3)cc2Cl)ncc1C(F)(F)F [Compound 43, [5-Chloro-4-(4-ethylamino-5-trifluoromethyl-pyrimidin-2-ylamino)-2-methoxy-phenyl]-(2-oxa-6-aza-spiro[3.3]hept-6-yl)-methanone] |
| 9.25 | CCNc1nc(Nc2cc(F)c(C(=O)NC3(CO)CC3)cc2OC)ncc1C(F)(F)F [Compound 114, 4-(4-Ethylamino-5-trifluoromethyl-pyrimidin-2-ylamino)-2-fluoro-N-(1-hydroxymethyl-cyclopropyl)-5-methoxy-benzamide] |
| 8.26 | COc1cc(C(=O)N2CCOCC2)c(C)cc1Nc1ncc(Cl)c(OC)n1 [Compound 93, [4-(5-Chloro-4-methoxy-pyrimidin-2-ylamino)-5-methoxy-2-methyl-phenyl]-morpholin-4-yl-methanone] |
| 8.86 | CNc1nc(Nc2cc(C)c(C(=O)N3CCOCC3)cc2OCC2CC2)ncc1C(F)(F)F [Compound 109, [5-Cyclopropylmethoxy-2-methyl-4-(4-methylamino-5-trifluoromethyl-pyrimidin-2-ylamino)-phenyl]-morpholin-4-yl-methanone] |
| 8.66 | COc1cc(C(=O)N2CCOCC2)c(F)cc1Nc1ncc(C(F)(F)F)c(N[C@@H]2C[C@@H]2F)n1 [Compound 75, {2-Fluoro-4-[4-((1R,2S)-2-fluoro-cyclopropylamino)-5-trifluoromethyl-pyrimidin-2-ylamino]-5-methoxy-phenyl}-morpholin-4-yl-methanone] |
| 7.62 | CNc1nc(Nc2cc(F)c(C(=O)N3CCOCC3)cc2F)ncc1C(F)(F)F [Compound 16, [2,5-Difluoro-4-(4-methylamino-5-trifluoromethyl-pyrimidin-2-ylamino)-phenyl]-morpholin-4-yl-methanone] |
| 8.22 | CNc1nc(Nc2ccc(C(=O)N3CCOCC3)cc2OC(F)F)ncc1C(F)(F)F [Compound 47, [3-Difluoromethoxy-4-(4-methylamino-5-trifluoromethyl-pyrimidin-2-ylamino)-phenyl]-morpholin-4-yl-methanone] |
| 9.18 | O=C(c1cc(OCCF)c(Nc2ncc(C(F)(F)F)c(NC3CC3)n2)cc1F)N1CCOCC1 [Compound 70, [4-(4-Cyclopropylamino-5-trifluoromethyl-pyrimidin-2-ylamino)-2-fluoro-5-(2-fluoro-ethoxy)-phenyl]-morpholin-4-yl-methanone] |
| 8.52 | CCNc1nc(Nc2ccc(C(=O)N3CCOCC3)c(F)c2F)ncc1C(F)(F)F [Compound 41, [4-(4-Ethylamino-5-trifluoromethyl-pyrimidin-2-ylamino)-2,3-difluoro-phenyl]-morpholin-4-yl-methanone] |
| 8.97 | CCNc1nc(Nc2cc(C)c(C(=O)N3CCOCC3)cc2Cl)ncc1C(F)(F)F [Compound 71, [5-Chloro-4-(4-ethylamino-5-trifluoromethyl-pyrimidin-2-ylamino)-2-methyl-phenyl]-morpholin-4-yl-methanone] |
| 8.50 | COc1cc(C(=O)N2CC[C@H](F)C2)ccc1Nc1ncc(C#N)c(NC2CC2)n1 [Compound 96, 4-Cyclopropylamino-2-[4-((S)-3-fluoro-pyrrolidine-1-carbonyl)-2-methoxy-phenylamino]-pyrimidine-5-carbonitrile] |
| 6.15 | O=C(c1cc(Cl)c(Nc2ncc(C(F)(F)F)c(NC3CC3)n2)cc1OCF)N1CCOCC1 [Compound 102, [5-Chloro-4-(4-cyclopropylamino-5-trifluoromethyl-pyrimidin-2-ylamino)-2-fluoromethoxy-phenyl]-morpholin-4-yl-methanone] |
| 8.64 | O=C(c1ccc(Nc2ncc(C(F)(F)F)c(NC3CC3)n2)c(F)c1F)N1CCOCC1 [Compound 51, [4-(4-Cyclopropylamino-5-trifluoromethyl-pyrimidin-2-ylamino)-2,3-difluoro-phenyl]-morpholin-4-yl-methanone] |
| 8.16 | CNc1nc(Nc2cc(F)c(C(=O)N3CCCC3)cc2OCF)ncc1C(F)(F)F [Compound 95, [2-Fluoro-5-fluoromethoxy-4-(4-methylamino-5-trifluoromethyl-pyrimidin-2-ylamino)-phenyl]-pyrrolidin-1-yl-methanone] |
| 8.32 | CNc1nc(Nc2cc(C)c(C(=O)N3CCOCC3)cc2C)ncc1C(F)(F)F [Compound 130, [2,5-Dimethyl-4-(4-methylamino-5-trifluoromethyl-pyrimidin-2-ylamino)-phenyl]-morpholin-4-yl-methanone] |
| 9.47 | [2H]C1([2H])OC([2H])([2H])C([2H])([2H])N(C(=O)c2cc(OC)c(Nc3ncc(C(F)(F)F)c(NC)n3)cc2C)C1([2H])[2H] [Compound 104, (5-methoxy-2-methyl-4-(4-(methylamino)-5-(trifluoromethyl)pyrimidin-2-ylamino)phenyl)(perdeuteromorpholino)methanone] |
| 9.23 | CCNc1nc(Nc2cc(F)c(C(=O)N3C[C@@H]4C[C@H]3CO4)cc2OC)ncc1C(F)(F)F [Compound 14, [4-(4-Ethylamino-5-trifluoromethyl-pyrimidin-2-ylamino)-2-fluoro-5-methoxy-phenyl]-(1S,4S)-2-oxa-5-aza-bicyclo[2.2.1]hept-5-yl-methanone] |
| 7.29 | CCNc1nc(Nc2cc(OC)c(C(=O)N3CC[C@H](F)C3)cc2F)ncc1C#N [Compound 81, 4-Ethylamino-2-[2-fluoro-4-((S)-3-fluoro-pyrrolidine-1-carbonyl)-5-methoxy-phenylamino]-pyrimidine-5-carbonitrile] |
